Data reported in article PMC6145916, “Interaction of mitochondrial fission factor with dynamin related protein 1 governs physiological mitochondrial function in vivo” (Scientific Reports, 2018).
Where no end group is shown, it is not given here.

Assays:
SH-SY5Y cells = experiment: Mitochondrial ROS (MitoSox Red), SH-SY5Y; assay type: cell-based, human; conditions: overnight treatment, normalized to no peptide; 3 independent experiments
Protocol: Represented Western blot is cropped from a full blot shown in the Expanded Western Blots section of the Supplementary Information. […] Hoechst 33342 is shown in blue and Tom20 in green (n = 3, 10 images each). Below, quantification of the form factor (degree of branching) and major axis length (length of mitochondria). At least 6,000 mitochondrial fragments were measured for each condition. Mitochondrial reactive oxygen species (ROS) production (MitoSox Red) (c) and mitochondrial membrane potential (TMRM) (d) after overnight treatment with indicated concentrations of peptide or FCCP. Data are from 3 independent experiments per condition normalized to the average no peptide value. (e) Relative mitochondrial ROS (MitoSox Red) signal in GFP positive cells expressing full-length or alanine-substituted P259 at indicated amino acids after two days of transfection. Values are normalized to a GFP empty vector (n = 3, with 3 replicates). […] Data are mean ± s.e.
Following treatment, cells were washed with treatment media.
The Cy5 filter was used to autofocus on the mitochondria plane. […] MitoROS was calculated as the average MitoSox signal per cell. The mitochondrial membrane potential was calculated as the average TMRM signal in the mitochondrial mask. […]
calculated as the average MitoSox signal per cell. […]

striatal neurons = experiment: Transmission electron microscopy of striatum; assay type: in vivo, mouse; conditions: 3 mg/Kg/day, 8 weeks, WT mice; 806 (TAT) and 1109 (P259) mitochondria from ten images per condition
Text: (a) Quantification of mitochondrial Drp1 content relative to ALDH2 (a mitochondrial matrix enzyme) in the mitochondrial fraction isolated from total brain lysate of wild-type mice (Western blot shown in Fig. S3B) (n = 4 mice). (b) ATP content in brain tissue of wild-type mice (n = 4 mice, 2 replicates). (c) Representative transmission electron microscopy images of the striatum from wild-type mice. […] The first principal component represents 42% of the variation. (f) Local linear embedding dimensionality reduction and visualization of all behaviors collected weekly from TAT- (black) or P259- (purple) treated WT and TAT- (white) treated R6/2 mice over the course of 8 weeks. […] All behavior and survival tests were conducted by an experienced observer who was blinded to the treatment groups. Data are mean ± s.e.
Five-week old R6/2 HD mice and their wild-type littermates (a total of 60 mice) were implanted subcutaneously with a 28-d Alzet osmotic pump with either P259-TAT or TAT control peptide (15 mice per group) to be delivered continuously at a rate of 3 mg/Kg/day, as previously described. All mice were implanted twice for a total of an 8-week treatment. 20 of the WT mice were implanted 3 times for a total of a 12-week treatment at 3 mg/Kg/day. […]
To quantify mitochondrial motility, the images at time 0 and 150 seconds w ere overlaid. […]

YGRKKRRQRRRGSGIIQLPEIVVV-NH2 (C-terminus assumed) [P259]
mitochondrial ROS levels (SH-SY5Y cells): increase in mitochondrial reactive oxygen species (ROS) levels | mitochondrial size and shape in striatal neurons (electron microscopy) (striatal neurons): larger and more elongated mitochondria in striatal neurons
